From ChEMBL document CHEMBL2331086, “Pharmacological properties and predicted binding mode of arylmethylene quinuclidine-like derivatives at the α3β4 nicotinic acetylcholine receptor (nAChR)” (Bioorg Med Chem Lett, 2013)
Calls of active or inactive are those of the source. The rule behind the calls is not given here.

Legend:
[1] = biological target: T1, Neuronal acetylcholine receptor; alpha3/beta4 (Homo sapiens, UniProt P30926+P32297); assay: Agonist activity at human alpha3beta4 nAChR expressed in CHO cells at 10 uM by electrophysiological analysis relative to acetylcholine; format: cell-based
T1 sequence (P30926 whole entry): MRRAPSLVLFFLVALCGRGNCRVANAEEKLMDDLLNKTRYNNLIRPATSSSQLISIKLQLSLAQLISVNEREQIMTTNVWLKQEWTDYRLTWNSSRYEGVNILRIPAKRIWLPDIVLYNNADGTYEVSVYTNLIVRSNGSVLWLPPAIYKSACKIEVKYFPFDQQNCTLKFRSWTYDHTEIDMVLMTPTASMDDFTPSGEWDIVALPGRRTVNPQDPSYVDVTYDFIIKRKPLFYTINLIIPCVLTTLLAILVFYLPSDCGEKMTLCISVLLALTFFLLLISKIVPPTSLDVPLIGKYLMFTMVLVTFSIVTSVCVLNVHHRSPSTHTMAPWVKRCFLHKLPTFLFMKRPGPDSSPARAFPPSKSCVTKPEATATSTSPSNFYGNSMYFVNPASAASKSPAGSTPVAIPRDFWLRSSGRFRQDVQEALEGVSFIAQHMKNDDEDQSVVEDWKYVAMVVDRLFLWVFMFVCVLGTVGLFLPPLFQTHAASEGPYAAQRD
T1 sequence (P32297 whole entry): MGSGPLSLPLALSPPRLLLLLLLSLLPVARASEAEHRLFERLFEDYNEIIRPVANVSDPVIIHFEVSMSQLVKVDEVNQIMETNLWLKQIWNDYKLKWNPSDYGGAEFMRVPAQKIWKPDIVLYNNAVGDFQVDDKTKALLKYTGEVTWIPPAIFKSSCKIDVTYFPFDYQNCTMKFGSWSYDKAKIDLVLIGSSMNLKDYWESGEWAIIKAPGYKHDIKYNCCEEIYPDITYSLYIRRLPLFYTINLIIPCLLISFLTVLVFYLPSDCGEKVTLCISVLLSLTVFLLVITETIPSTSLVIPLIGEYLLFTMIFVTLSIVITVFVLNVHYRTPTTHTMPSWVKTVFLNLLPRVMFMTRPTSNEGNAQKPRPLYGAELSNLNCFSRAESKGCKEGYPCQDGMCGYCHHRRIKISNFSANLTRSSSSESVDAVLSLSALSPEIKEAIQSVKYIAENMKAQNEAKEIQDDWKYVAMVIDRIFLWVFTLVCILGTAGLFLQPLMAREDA

[2] = biological target: T1, Neuronal acetylcholine receptor; alpha3/beta4; assay: Agonist activity at human alpha3beta4 nAChR expressed in CHO cells at 1 uM by electrophysiological analysis relative to acetylcholine; format: cell-based
[3] = biological target: T1, Neuronal acetylcholine receptor; alpha3/beta4; assay: Agonist activity at human alpha3beta4 nAChR expressed in CHO cells at 0.1 uM by electrophysiological analysis relative to acetylcholine; format: cell-based
[4] = biological target: T1, Neuronal acetylcholine receptor; alpha3/beta4; assay: Inhibition of human alpha3beta4 nAChR expressed in CHO cells assessed as inhibition of calcium influx by calcium-4 based FLIPR analysis; format: cell-based
[5] = biological target: T1, Neuronal acetylcholine receptor; alpha3/beta4; assay: Agonist activity at human alpha3beta4 nAChR expressed in CHO cells assessed as calcium influx by calcium-4 based FLIPR analysis relative to nicotine; format: cell-based
[6] = biological target: T1, Neuronal acetylcholine receptor; alpha3/beta4; assay: Displacement of [3H]epibatidine from human alpha3beta4 nAChR expressed in CHO cells after 2 hrs by liquid scintillation counting; format: cell-based
[7] = biological target: T1, Neuronal acetylcholine receptor; alpha3/beta4; assay: Agonist activity at human alpha3beta4 nAChR expressed in CHO cells assessed as calcium influx by calcium-4 based FLIPR analysis; format: cell-based
[8] = biological target: T1, Neuronal acetylcholine receptor; alpha3/beta4; assay: Reversible inhibition of human alpha3beta4 nAChR expressed in CHO cells assessed as inhibition of acetylcholine-induced response at 1 uM measured after compound washout by electrophysiological method; format: cell-based
[9] = biological target: T1, Neuronal acetylcholine receptor; alpha3/beta4; assay: Non-competitive antagonist activity at human alpha3beta4 nAChR expressed in CHO cells assessed as inhibition of nicotine-induced calcium influx incubated for 30 mins prior to nicotine-induction by calcium-4 based FLIPR analysis; format: cell-based
[10] = biological target: T2, Muscarinic acetylcholine receptor M2 (Rattus norvegicus, UniProt P10980); assay: Antagonist activity at rat muscarinic M2 receptor isolated from brain
T2 sequence (P10980 whole entry): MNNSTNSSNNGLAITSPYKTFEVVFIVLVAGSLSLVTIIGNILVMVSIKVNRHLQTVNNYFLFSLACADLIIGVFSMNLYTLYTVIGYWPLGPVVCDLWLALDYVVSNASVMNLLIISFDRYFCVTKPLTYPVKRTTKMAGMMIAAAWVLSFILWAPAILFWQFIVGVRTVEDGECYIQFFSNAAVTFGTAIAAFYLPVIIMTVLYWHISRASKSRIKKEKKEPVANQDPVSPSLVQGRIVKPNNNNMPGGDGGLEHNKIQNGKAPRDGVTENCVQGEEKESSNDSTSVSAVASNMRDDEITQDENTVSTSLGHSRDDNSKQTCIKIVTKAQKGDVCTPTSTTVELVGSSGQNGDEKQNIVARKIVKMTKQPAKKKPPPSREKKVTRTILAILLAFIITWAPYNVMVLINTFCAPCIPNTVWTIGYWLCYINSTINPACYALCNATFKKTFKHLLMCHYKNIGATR

[11] = biological target: T3, Muscarinic acetylcholine receptor M1 (Rattus norvegicus, UniProt P08482); assay: Antagonist activity at rat muscarinic M1 receptor isolated from brain
T3 sequence (P08482 whole entry): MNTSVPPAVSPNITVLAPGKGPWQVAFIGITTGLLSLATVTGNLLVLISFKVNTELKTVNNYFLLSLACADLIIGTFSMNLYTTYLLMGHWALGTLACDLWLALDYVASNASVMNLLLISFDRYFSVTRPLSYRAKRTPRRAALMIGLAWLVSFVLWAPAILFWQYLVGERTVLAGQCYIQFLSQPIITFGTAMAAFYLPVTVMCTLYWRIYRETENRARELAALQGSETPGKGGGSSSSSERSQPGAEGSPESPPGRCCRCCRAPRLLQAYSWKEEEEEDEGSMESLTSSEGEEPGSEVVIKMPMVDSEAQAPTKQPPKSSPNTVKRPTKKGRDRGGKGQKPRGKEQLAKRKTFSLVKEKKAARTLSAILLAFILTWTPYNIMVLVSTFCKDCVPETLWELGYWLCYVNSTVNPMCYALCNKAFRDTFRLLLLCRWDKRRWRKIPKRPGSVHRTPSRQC

SMILES	Activity [1] [%]	Activity [2] [%]	Activity [3] [%]	IC50 [4] [µM]	Emax [5] [%]	Ki [6] [nM]	EC50 [7] [µM]	inhibition [8]	IC50 [9] [nM]	IC50 [10] [nM]	IC50 [11] [nM]
c1ccc(C(c2ccccc2)[N+]23CCN(CC2)CC3)cc1	0.5	0.7	1	15	< 10	8500					
N#CC(c1ccccc1)C1CN2CCC1CC2 (stereo not given)	6	2	1	23	< 10	2100					
C(=C1/CN2CCC1CC2)/c1cccnc1	56	22	5	10	31	1600	2				
c1ccc(C(c2ccccc2)C2CN3CCC2CC3)cc1 (stereo not given)	7	2	0.5	0.2	14	1500	> 10	Active	400		
C(=C1/CN2CCC1CC2)/c1ccccc1	7	2	1	6	25	2100	3				
C(CN1CCCCC1)=C(c1ccccc1)c1ccccc1	0.6	0.7	0.5	0.1	31	2200	> 10	inactive	380	372	75.9
c1ccc(C[N+]23CCC(CC2)C(C(c2ccccc2)c2ccccc2)C3)cc1 (stereo not given)	0.4	1	0.5	0.08	10	2300	9	inactive	600		
